This is an account of results in paper PMC2062997, “Effects of impaired renal function on the pharmacokinetics of raltitrexed (Tomudex ZD1694)” (British Journal of Cancer, 1998).

What is called AUC is the area under the concentration-time curve, a measure of exposure. A low value points to less exposure. As a reminder, the Cmax is the highest concentration seen after dosing. As a reminder, the Tmax is the time from dosing to the highest level. The half-life is the time needed for the level to fall by half in the phase considered. A high value points to slow loss.

Data set [1] is described as follows: Single-dose plasma pharmacokinetics of raltitrexed in cancer patients (radioimmunoassay, three-compartment model). It counts as in vivo, human. The method, then: British Journal of Cancer (1 998) 78(9). 1188-1193 C 1998 Cancer Research Campaign Effects of impaired renal function on the pharmacokinetics of raltitrexed (Tomudex ZDI 694) I Judson', T Maughan2, P Beale', J Primrose3, P Hoskin4, J HanweIll, C Berry1, M Walker5 and F Sutcliffe5 lInstitute of Cancer Research. Sutton, Surrey SM2 5NG, UK; Welindre Hospital, Whitchurch. Cardiff CF4, UK; 3Souftampton General Hospital, Southampton S09 4XY. UK: 'Mount Vernon Hospital, Middlesex HA6 2RN. UK; 5Zeneca Pharmaceutcals Macclesfield. Cheshire SK10 4TG. UK Summary This open-label, non-randomized, parallel-group trial investigated the pharmacokinetics of raltitrexed (Tomudex, formerly ZD1 694) after a single intravenous dose of 3.0 mg m-2, comparing eight cancer patients with mild to moderate renal impairment (creatinine clearance 25-65 ml min-') with eight cancer patients with normal renal function (creatinine clearance >65 ml min-'). The primary end points were area under the plasma raltitrexed concentration-vime curve from the start of the infusion to the last determined concentration (AUCo_) and AUC to infinity (AUCo); secondary end points were peak corncentrations of ralftitrexed (C,n,) and elimination half-life (t,>). The groups were compared statistically using analysis of covariance. The AUCs were greater for patients with renal impairment than for patients with normal renal function (2452.2 compared with 1247.3 ng h ml-' for AUCo._. (ratio 1.97; 95% Cl 1.36-2.84); 2961.5 compared with 1457.0 ng h ml-' for AUCo_ (ratio 2.03; 1.25-3.29). These differences were statistically significant (P = 0.002 and P = 0.008 for AUC, and AUCo_ respectively. Terminal half-life was longer for the renally impaired patients (271.2 compared with 143.3; P = 0.030). There was no significant statistical difference between the groups for C, (652.9 compared with 564.7 ng ml-' for patients with impaired and normal renal function respectively: ratio 1.16; 0.91-1.46; P=0.204). There was a clear relationship between raltfitrexed clearance and creatinine clearance. Adverse events, severe (WHO grade 3 or 4) toxicity and hospitalization due to adverse events were more frequent in the group with renal impairment. Therefore, a reduction in ralftitrexed dose and increased interval between doses is recommended for patients with mild to moderate renal impairment. Keywords: pharmacokinetics; thymidylate synthase; phase I trial; raltitrexed; renal impairment Raltitrexed (Tomudex. ZD1694: Zeneca Limited) is a cytotoxic agent w-hich acts by direct and specific inhibition of thymidydlate synthase. the enzyme catalysing a critical step in de novo DNA synthesis. i.e. the production of thymidine monophosphate from deoxvuridine monophosphate. Some clinically effective anti- cancer agents. such as 5-fluorouracil and methotrexate. act in part by inhibiting thymidylate synthase but also have effects on other enzyme pathways. xvhich may contribute to their anti-tumour activity and obserned toxicity profiles. Raltitrexed inhibits thymidylate synthase selectively in vitro (Jackman et al. 1991). […] The poly- glutamates are retained in cells and cause prolonged inhibition of th midv late synthase. which leads to DNA fragmentation and cell death. […] The mean apparent half-life of the terminal (gamma) phase (tl, ,) was 50-lOO h (Clarke et al. 1996). This prolonged t1, may represent hydrolysis of the polvalutamated Received 17 November 1997 Revised 4 Apnl 1998 Accepted 14 Apnl 1998 Correspondence to: IR Judson, CRC Centre for Cancer Therapeutics. The Institute of Cancer Research. Block E. 15 Cotswold Road. Belmont. Sutton. Surrey SM2 5NG. UK forms and release of raltitrexed from tissues into the circulation. and allow s the druc to be administered as a single dose once ev er 3 weeks. In the phase I trial. a dose and schedule of 3.0mg m-' every 3 weeks was identified as suitable for phase H inxvestigation. […]

Data set [2] can be described thus: Safety: adverse events and WHO-graded toxicity in cancer patients. It is filed as in vivo. The method, then:
British Journal of Cancer (1 998) 78(9). 1188-1193 C 1998 Cancer Research Campaign Effects of impaired renal function on the pharmacokinetics of raltitrexed (Tomudex ZDI 694) I Judson', T Maughan2, P Beale', J Primrose3, P Hoskin4, J HanweIll, C Berry1, M Walker5 and F Sutcliffe5 lInstitute of Cancer Research. Sutton, Surrey SM2 5NG, UK; Welindre Hospital, Whitchurch. Cardiff CF4, UK; 3Souftampton General Hospital, Southampton S09 4XY. UK: 'Mount Vernon Hospital, Middlesex HA6 2RN. UK; 5Zeneca Pharmaceutcals Macclesfield. Cheshire SK10 4TG. UK Summary This open-label, non-randomized, parallel-group trial investigated the pharmacokinetics of raltitrexed (Tomudex, formerly ZD1 694) after a single intravenous dose of 3.0 mg m-2, comparing eight cancer patients with mild to moderate renal impairment (creatinine clearance 25-65 ml min-') with eight cancer patients with normal renal function (creatinine clearance >65 ml min-'). The primary end points were area under the plasma raltitrexed concentration-vime curve from the start of the infusion to the last determined concentration (AUCo_) and AUC to infinity (AUCo); secondary end points were peak corncentrations of ralftitrexed (C,n,) and elimination half-life (t,>). The groups were compared statistically using analysis of covariance. The AUCs were greater for patients with renal impairment than for patients with normal renal function (2452.2 compared with 1247.3 ng h ml-' for AUCo._. (ratio 1.97; 95% Cl 1.36-2.84); 2961.5 compared with 1457.0 ng h ml-' for AUCo_ (ratio 2.03; 1.25-3.29). These differences were statistically significant (P = 0.002 and P = 0.008 for AUC, and AUCo_ respectively. Terminal half-life was longer for the renally impaired patients (271.2 compared with 143.3; P = 0.030). There was no significant statistical difference between the groups for C, (652.9 compared with 564.7 ng ml-' for patients with impaired and normal renal function respectively: ratio 1.16; 0.91-1.46; P=0.204). There was a clear relationship between raltfitrexed clearance and creatinine clearance. Adverse events, severe (WHO grade 3 or 4) toxicity and hospitalization due to adverse events were more frequent in the group with renal impairment. Therefore, a reduction in ralftitrexed dose and increased interval between doses is recommended for patients with mild to moderate renal impairment. Keywords: pharmacokinetics; thymidylate synthase; phase I trial; raltitrexed; renal impairment Raltitrexed (Tomudex. ZD1694: Zeneca Limited) is a cytotoxic agent w-hich acts by direct and specific inhibition of thymidydlate synthase. the enzyme catalysing a critical step in de novo DNA synthesis. i.e. the production of thymidine monophosphate from deoxvuridine monophosphate. […]

Molecules are shown by their SMILES.

With `Cc1nc2ccc(CN(C)c3ccc(C(=O)N[C@@H](CCC(=O)O)C(=O)O)s3)cc2c(=O)[nH]1` [raltitrexed], in data set [1] (95% CI 0.91-1.46, P = 0.204), the “Cmax estimated ratio (impaired:normal renal function)” value was 1.16. In data set [1] (95% CI 1.25-3.29, P = 0.008), the “AUC0-infinity estimated ratio (impaired:normal renal function)” value is recorded as 2.03. Further, the “AUC0-tldc estimated ratio (impaired:normal renal function)” value in data set [1] (95% CI 1.36-2.84, P = 0.002) is reported as 1.97. Moreover, the AUC in data set [1] (both sexes, human, in vivo, AUC0-tldc, adjusted geometric least squares mean) turned out to be 2450 ng·h/mL. This molecule had a Cmax in data set [1] (both sexes, human, in vivo, Cmax, adjusted geometric least squares mean) of 565 ng/mL. Moreover, the Cmax in data set [1] (both sexes, human, in vivo, iv, 3 mg, Cmax (mean; SD)) amounted to 676 ng/mL. Also, in data set [1] (both sexes, human, in vivo, iv, tmax (median and range)), the Tmax is 0.267 h. The half-life in data set [1] (both sexes, human, in vivo, t1/2 gamma (terminal half-life), adjusted least squares mean) was 271 h. Moreover, in data set [1] (both, human, in vivo), the “Cmax, adjusted geometric least squares mean” value was determined as 652.9 ng/mL and the “t1/2 gamma (terminal half-life), adjusted least squares mean” value was determined as 143.3 h. Besides, in data set [1] (both, human, in vivo, iv), the “tmax (median and range)” value is 20 (10-30) min. Moreover, in data set [1] (human, in vivo, iv, 3 mg), the “Cmax (mean; SD)” value is given as 567.1 ? 62.7 ng ml-1. In addition, in data set [2] (both, human, in vivo), the “Pain, number of patients” value was found to be 3 patients; the “WHO grade 3 or 4 drug-related toxicity” value is given as “No WHO grade 3 or 4 drug-related toxicity was reported”; the “WHO grade 3 or 4 toxicity” value is on record as “grade 3 or 4 toxicity was observed”. Besides, the Serious adverse events result in data set [2] (renally impaired patient: Cr-EDTA clearance 28, calculated creatinine clearance 23.2 ml min-1) was “Death”.
